In ChEMBL document CHEMBL4417631, “Oral peptide inhibitors of interleukin-23 receptor and their use to treat inflammatory bowel diseases” (2017) one finds IC50 data, which are given here for 15 compounds.

Where a SMILES comes first, the peptide text is derived from it. [ ]: non-standard residue; d: D form. hLeu = CC(C)CC[C@H](N)C(=O)O

The nature of this experiment: Inhibition of interleukin-23 binding to rat interleukin-23 receptor incubated for 2 hrs by competitive binding ELISA.
In turn, `CC(=O)N[C@@H](CS)C(=O)N[C@@H](CCCN)C(=O)N[C@H](C(=O)N[C@@H](Cc1c[nH]c2ccccc12)C(=O)N[C@@H](CCC(N)=O)C(=O)N[C@@H](CS)C(=O)N[C@@H](Cc1ccc(O)cc1)C(=O)N[C@@H](Cc1c[nH]c2ccccc12)C(=O)N[C@@H](CCCNC(=N)N)C(=O)N[C@H](C(=O)N[C@@H](Cc1ccccc1)C(=O)NCC(=O)NCCOCC(=O)N[C@H](CCCCN)C(N)=O)C(C)C)[C@@H](C)O` came in with an IC50 of 69 nM. In other words, the double-digit nanomolar range. As for `CC(=O)N[C@@H](CS)C(=O)N[C@@H](CCC(N)=O)C(=O)N[C@H](C(=O)N[C@@H](Cc1c[nH]c2ccccc12)C(=O)N[C@@H](CCC(N)=O)C(=O)N[C@@H](CS)C(=O)N[C@@H](Cc1ccc(O)cc1)C(=O)N[C@@H](Cc1cccc2ccccc12)C(=O)N[C@@H](CCC(C)C)C(=O)N[C@@H](CCC(=O)O)C(=O)N[C@@H](CC(N)=O)C(=O)NCC(N)=O)[C@@H](C)O`, the figure is 37 nM; as for `CC(=O)N[C@@H](CS)C(=O)N[C@@H](CCCNC(=N)N)C(=O)N[C@H](C(=O)N[C@@H](Cc1c[nH]c2ccccc12)C(=O)N[C@@H](CCC(N)=O)C(=O)N[C@@H](CS)C(=O)N[C@@H](Cc1ccc(O)cc1)C(=O)N[C@@H](Cc1c[nH]c2ccccc12)C(=O)N[C@@H](CO)C(=O)N[C@@H](CCC(=O)O)C(=O)N[C@@H](Cc1ccccc1)C(=O)NCC(=O)N[C@H](C(=O)NCC(=O)N[C@@H](CCC(=O)O)C(N)=O)[C@@H](C)O)[C@@H](C)O` (Ac-CRTWQCYWSEFGTGE-NH2), 778 nM. Under `CC(=O)N[C@@H](CS)C(=O)N[C@@H](CCC(N)=O)C(=O)N[C@H](C(=O)N[C@@H](Cc1c[nH]c2ccccc12)C(=O)N[C@@H](CCC(N)=O)C(=O)N[C@@H](CS)C(=O)N[C@@H](Cc1ccc(O)cc1)C(=O)N[C@@H](Cc1cccc2ccccc12)C(=O)N[C@@](C)(CC(C)C)C(=O)N[C@@H](CCC(=O)O)C(=O)N[C@@H](CC(N)=O)C(=O)NCC(N)=O)[C@@H](C)O` stands 67 nM; under `CC(=O)N[C@@H](CS)C(=O)N[C@@H](CCC(N)=O)C(=O)N[C@H](C(=O)N[C@@H](Cc1c[nH]c2ccccc12)C(=O)N[C@@H](CCC(N)=O)C(=O)N[C@@H](CS)C(=O)N[C@@H](Cc1ccc(O)cc1)C(=O)N[C@@H](Cc1c[nH]c2ccccc12)C(=O)N[C@@H](CCCNC(=N)N)C(=O)N[C@H](C(=O)N[C@@H](Cc1ccccc1)C(=O)NCC(=O)NCCOCC(=O)N[C@H](CCCCN)C(N)=O)C(C)C)[C@@H](C)O`, 62 nM. Regarding `C[C@@H](O)[C@H](NC(=O)[C@H](CCC(N)=O)NC(=O)[C@@H](N)CS)C(=O)N[C@@H](Cc1c[nH]c2ccccc12)C(=O)N[C@@H](CCC(N)=O)C(=O)N[C@@H](CS)C(=O)N[C@@H](Cc1ccc(O)cc1)C(=O)N[C@@H](Cc1c[nH]c2ccccc12)C(=O)N[C@@H](CCCN)C(=O)N[C@@H](CN)C(=O)N[C@@H](Cc1ccccc1)C(=O)NCC(=O)NCCOCC(=O)N[C@H](CCCCN)C(N)=O`, the IC50 came out at 276 nM. Regarding `CC(=O)N[C@@H](CS)C(=O)N[C@@H](CO)C(=O)N[C@H](C(=O)N[C@@H](Cc1c[nH]c2ccccc12)C(=O)N[C@@H](CCC(N)=O)C(=O)N[C@@H](CS)C(=O)N[C@@H](Cc1ccc(O)cc1)C(=O)N[C@@H](Cc1c[nH]c2ccccc12)C(=O)N[C@@H](CO)C(=O)N[C@@H](CCCCN)C(=O)N[C@@H](CCC(N)=O)C(=O)N[C@@H](CO)C(=O)NCC(=O)NCC(=O)N[C@@H](CO)C(N)=O)[C@@H](C)O` (Ac-CSTWQCYWSKQSGGS-NH2), the IC50 is 204 nM. As for `CC(=O)N[C@@H](CS)C(=O)N[C@@H](CCC(N)=O)C(=O)N[C@H](C(=O)N[C@@H](Cc1c[nH]c2ccccc12)C(=O)N[C@@H](CCC(N)=O)C(=O)N[C@@H](CS)C(=O)N[C@@H](Cc1ccc(O)cc1)C(=O)N[C@@H](Cc1c[nH]c2ccccc12)C(=O)N[C@@H](CCC(C)C)C(=O)N[C@@H](CCC(=O)O)C(=O)N[C@@H](CC(N)=O)C(=O)N[C@@H](CCC(=O)O)C(N)=O)[C@@H](C)O`, the figure is 1000 nM. For the compound `CC(=O)N[C@@H](CS)C(=O)N[C@@H](CCC(N)=O)C(=O)N[C@H](C(=O)N[C@@H](Cc1c[nH]c2ccccc12)C(=O)N[C@@H](CCC(N)=O)C(=O)N[C@@H](CS)C(=O)N[C@@H](Cc1cccc2ccccc12)C(=O)N[C@@H](Cc1ccc2ccccc2c1)C(=O)N[C@@H](CCC(C)C)C(=O)N[C@@H](CCC(=O)O)C(=O)N[C@@H](CC(N)=O)C(=O)NCC(N)=O)[C@@H](C)O`, the IC50 stood at 125 nM. This IC50 is about 8-fold lower than that of the compound before. As for `CC(=O)N[C@@H](CC(C)C)C(=O)N[C@@H](CS)C(=O)N[C@@H](CCC(N)=O)C(=O)N[C@H](C(=O)N[C@@H](Cc1c[nH]c2ccccc12)C(=O)N[C@@H](CCC(N)=O)C(=O)N[C@@H](CS)C(=O)N[C@@H](Cc1ccc(O)cc1)C(=O)N[C@@H](Cc1c[nH]c2ccccc12)C(=O)N[C@@H](CCC(C)C)C(=O)N[C@@H](CCC(=O)O)C(=O)N[C@@H](CC(N)=O)C(=O)NCC(N)=O)[C@@H](C)O`, the figure is 26 nM; as for `CC(=O)N[C@@H](CS)C(=O)N[C@@H](CC(N)=O)C(=O)N[C@H](C(=O)N[C@@H](Cc1c[nH]c2ccccc12)C(=O)N[C@@H](CCC(N)=O)C(=O)N[C@@H](CS)C(=O)N[C@@H](Cc1ccc(O)cc1)C(=O)N[C@@H](Cc1c[nH]c2ccccc12)C(=O)N[C@@H](CCCNC(=N)N)C(=O)N[C@H](C(=O)N[C@@H](Cc1ccccc1)C(=O)NCC(=O)NCCOCC(=O)N[C@H](CCCCN)C(N)=O)C(C)C)[C@@H](C)O`, 79 nM; as for `CC(=O)N[C@@H](CS)C(=O)N[C@@H](CCN)C(=O)N[C@H](C(=O)N[C@@H](Cc1c[nH]c2ccccc12)C(=O)N[C@@H](CCC(N)=O)C(=O)N[C@@H](CS)C(=O)N[C@@H](Cc1ccc(O)cc1)C(=O)N[C@@H](Cc1c[nH]c2ccccc12)C(=O)N[C@@H](CCCNC(=N)N)C(=O)N[C@H](C(=O)N[C@@H](Cc1ccccc1)C(=O)NCC(=O)NCCOCC(=O)N[C@H](CCCCN)C(N)=O)C(C)C)[C@@H](C)O`, 51 nM. Under `CC(=O)N[C@@H](CS)C(=O)N[C@H](C(=O)N[C@H](C(=O)N[C@@H](Cc1c[nH]c2ccccc12)C(=O)N[C@@H](CCC(N)=O)C(=O)N[C@@H](CS)C(=O)N[C@@H](Cc1ccc(O)cc1)C(=O)N[C@@H](Cc1c[nH]c2ccccc12)C(=O)N[C@@H](CCC(C)C)C(=O)N[C@@H](CCC(=O)O)C(=O)N[C@@H](CC(N)=O)C(=O)NCC(N)=O)[C@@H](C)O)[C@@H](C)O` (Ac-CTTWQCYW[hLeu]ENG-NH2) stands 28 nM; under `CC(=O)N[C@@H](CS)C(=O)N[C@@H](CCC(N)=O)C(=O)N[C@H](C(=O)N[C@@H](Cc1c[nH]c2ccccc12)C(=O)N[C@@H](CCC(N)=O)C(=O)N[C@@H](CS)C(=O)N[C@@H](Cc1ccc(O)cc1)C(=O)N[C@@H](Cc1c[nH]c2ccccc12)C(=O)NC(C)(C)C(=O)N[C@@H](CCC(=O)O)C(=O)N[C@@H](CC(N)=O)C(=O)NCC(N)=O)[C@@H](C)O`, 34 nM. The compound `CC(=O)N[C@@H](CS)C(=O)N(C)[C@@H](CCCNC(=N)N)C(=O)N[C@H](C(=O)N[C@@H](Cc1c[nH]c2ccccc12)C(=O)N[C@@H](CCC(N)=O)C(=O)N[C@@H](CS)C(=O)N[C@@H](Cc1ccc(O)cc1)C(=O)N[C@@H](Cc1c[nH]c2ccccc12)C(=O)N[C@@H](CCCNC(=N)N)C(=O)N[C@H](C(=O)N[C@@H](Cc1ccccc1)C(=O)NCC(=O)NCCC(=O)N[C@H](CCCCN)C(N)=O)C(C)C)[C@@H](C)O` displayed an IC50 of 192 nM.
